Paper PMC7587962, “Evaluation of Cytotoxicity and α-Glucosidase Inhibitory Activity of Amide and Polyamino-Derivatives of Lupane Triterpenoids” (Molecules, 2020)

Tests used:
K-562 = assay: NCI-60 SRB screen: leukemia K-562; assay type: cell-based, human
RPMI-8226 = assay: NCI-60 SRB screen: leukemia RPMI-8226; assay type: cell-based; conditions: Homo sapiens, RPMI-8226, 48 h
HOP-62 = assay: NCI-60 SRB screen: non-small cell lung cancer HOP-62; assay type: cell-based, human
NCI-H226 = assay: NCI-60 SRB screen: non-small cell lung cancer NCI-H226; assay type: cell-based, human
NCI-H522 = assay: NCI-60 SRB screen: non-small cell lung cancer NCI-H522; assay type: cell-based, human
COLO 205 = assay: NCI-60 SRB screen: colon cancer COLO 205; assay type: cell-based, human
HCC-2998 = assay: NCI-60 SRB screen: colon cancer HCC-2998; assay type: cell-based, human
HCT-116 = assay: NCI-60 SRB screen: colon cancer HCT-116; assay type: cell-based; conditions: Homo sapiens, HCT-116, 48 h
HCT-15 = assay: NCI-60 SRB screen: colon cancer HCT-15; assay type: cell-based, human
HT29 = assay: NCI-60 SRB screen: colon cancer HT29; assay type: cell-based; conditions: Homo sapiens, HT-29, 48 h
KM12 = assay: NCI-60 SRB screen: colon cancer KM12; assay type: cell-based, human
SW-620 = assay: NCI-60 SRB screen: colon cancer SW-620; assay type: cell-based; conditions: Homo sapiens, SW-620, 48 h
SF-268 = assay: NCI-60 SRB screen: CNS cancer SF-268; assay type: cell-based, human
SF-539 = assay: NCI-60 SRB screen: CNS cancer SF-539; assay type: cell-based, human
LOX IMVI = assay: NCI-60 SRB screen: melanoma LOX IMVI; assay type: cell-based, human
MALME-3M = assay: NCI-60 SRB screen: melanoma MALME-3M; assay type: cell-based, human
MDA-MB-435 = assay: NCI-60 SRB screen: melanoma MDA-MB-435; assay type: cell-based, human
SK-MEL-2 = assay: NCI-60 SRB screen: melanoma SK-MEL-2; assay type: cell-based, human
OVCAR-8 = assay: NCI-60 SRB screen: ovarian cancer OVCAR-8; assay type: cell-based, human
SK-OV-3 = assay: NCI-60 SRB screen: ovarian cancer SK-OV-3; assay type: cell-based, human
786-0 = assay: NCI-60 SRB screen: renal cancer 786-0; assay type: cell-based, human
A498 = assay: NCI-60 SRB screen: renal cancer A498; assay type: cell-based, human
ACHN = assay: NCI-60 SRB screen: renal cancer ACHN; assay type: cell-based, human
CAKI-1 = assay: NCI-60 SRB screen: renal cancer CAKI-1; assay type: cell-based, human
RXF 393 = assay: NCI-60 SRB screen: renal cancer RXF 393; assay type: cell-based, human
SN12C = assay: NCI-60 SRB screen: renal cancer SN12C; assay type: cell-based, human
TK-10 = assay: NCI-60 SRB screen: renal cancer TK-10; assay type: cell-based, human
UO-31 = assay: NCI-60 SRB screen: renal cancer UO-31; assay type: cell-based, human
PC-3 = assay: NCI-60 SRB screen: prostate cancer PC-3; assay type: cell-based, human
DU-145 = assay: NCI-60 SRB screen: prostate cancer DU-145; assay type: cell-based, human
MDA-MB-231/ATCC = assay: NCI-60 SRB screen: breast cancer MDA-MB-231/ATCC; assay type: cell-based; conditions: Homo sapiens, MDA-MB-231, 48 h
BT-549 = assay: NCI-60 SRB screen: breast cancer BT-549; assay type: cell-based, human
T-47D = assay: NCI-60 SRB screen: breast cancer T-47D; assay type: cell-based, human
[1] = test system: 60 human tumor cell lines; conditions: single dose 10 µM
Breast cancer subpanel = assay: NCI-60 screen, subpanel Breast cancer
Prostate cancer subpanel = assay: NCI-60 screen, subpanel Prostate cancer
[2] = read-out: Percentage Cell Growth

C=C(C)[C@@H]1CC[C@]2(C(N)=O)CC[C@]3(C)[C@H](CC[C@@H]4[C@@]5(C)CC[C@H](O)C(C)(C)[C@@H]5CC[C@]43C)[C@@H]12 [Compound 5]
GI50 (K-562; Homo sapiens, K562, 48 h): 3.04 µM
Percentage Cell Growth (K-562; K-562, single dose 10 µM): 4.57%
GI50 (RPMI-8226): 3.53 µM
activity at 10 µM (RPMI-8226; [2]): -19.8%
Percentage Cell Growth (HOP-62; HOP-62, single dose 10 µM): −72.18%
GI50 (HOP-62; Homo sapiens, HOP-62, 48 h): 3.21 µM
GI50 (NCI-H226; Homo sapiens, NCI-H226, 48 h): 4.11 µM
Percentage Cell Growth (NCI-H226; NCI-H226, single dose 10 µM): −50.47%
GI50 (NCI-H522; Homo sapiens, NCI-H522, 48 h): 3.13 µM
Percentage Cell Growth (NCI-H522; NCI-H522, single dose 10 µM): −53.76%
Percentage Cell Growth (COLO 205; COLO 205, single dose 10 µM): −66.21%
GI50 (COLO 205; Homo sapiens, COLO 205, 48 h): 3.63 µM
Percentage Cell Growth (HCC-2998; HCC-2998, single dose 10 µM): −39.02%
GI50 (HCC-2998; Homo sapiens, HCC 2998, 48 h): 3.96 µM
GI50 (HCT-116): 1.97 µM
activity at 10 µM (HCT-116; [2]): -24.8%
Percentage Cell Growth (HCT-15; HCT-15, single dose 10 µM): 6.36%
GI50 (HCT-15; Homo sapiens, HCT-15, 48 h): 3.28 µM
GI50 (HT29): 2.56 µM
activity at 10 µM (HT29; [2]): -49.5%
GI50 (KM12; Homo sapiens, KM12, 48 h): 3.2 µM
Percentage Cell Growth (KM12; KM12, single dose 10 µM): −63.59%
GI50 (SW-620): 3.88 µM
activity at 10 µM (SW-620; [2]): -4.49%
GI50 (SF-268; Homo sapiens, SF-268, 48 h): 4.34 µM
Percentage Cell Growth (SF-268; SF-268, single dose 10 µM): 4.41%
GI50 (SF-539; Homo sapiens, SF-539, 48 h): 1.78 µM
Percentage Cell Growth (SF-539; SF-539, single dose 10 µM): −70.46%
GI50 (LOX IMVI; Homo sapiens, 48 h): 1.77 µM
Percentage Cell Growth (LOX IMVI; single dose 10 µM): −72.80%
GI50 (MALME-3M; Homo sapiens, Malme-3M, 48 h): 2.39 µM
Percentage Cell Growth (MALME-3M; MALME-3M, single dose 10 µM): −57.05%
GI50 (MDA-MB-435; Homo sapiens, MDA-MB-435, 48 h): 8.65 µM
Percentage Cell Growth (MDA-MB-435; MDA-MB-435, single dose 10 µM): −4.44%
GI50 (SK-MEL-2; Homo sapiens, SK-MEL-2, 48 h): 7.63 µM
Percentage Cell Growth (SK-MEL-2; SK-MEL-2, single dose 10 µM): −31.18%
GI50 (OVCAR-8; Homo sapiens, OVCAR-8, 48 h): 3.12 µM
Percentage Cell Growth (OVCAR-8; OVCAR-8, single dose 10 µM): −64.82%
GI50 (SK-OV-3; Homo sapiens, SK-OV-3, 48 h): 8.18 µM
Percentage Cell Growth (SK-OV-3; SK-OV-3, single dose 10 µM): −45.72%
Percentage Cell Growth (786-0; 786-0, single dose 10 µM): −72.16%
GI50 (786-0; Homo sapiens, 786-0, 48 h): 2.03 µM
Percentage Cell Growth (A498; A498, single dose 10 µM): −28.33%
GI50 (A498; Homo sapiens, A498, 48 h): 12.2 µM
GI50 (ACHN; Homo sapiens, 48 h): 2.44 µM
Percentage Cell Growth (ACHN; single dose 10 µM): −80.29%
Percentage Cell Growth (CAKI-1; CAKI-1, single dose 10 µM): −64.30%
GI50 (CAKI-1; Homo sapiens, CAKI-1, 48 h): 1.98 µM
GI50 (RXF 393; Homo sapiens, RXF 393, 48 h): 2.1 µM
Percentage Cell Growth (RXF 393; RXF 393, single dose 10 µM): −49.35%
GI50 (SN12C; Homo sapiens, 48 h): 3 µM
Percentage Cell Growth (SN12C; single dose 10 µM): −45.76%
GI50 (TK-10; Homo sapiens, TK-10, 48 h): 2.79 µM
Percentage Cell Growth (TK-10; TK-10, single dose 10 µM): −69.84%
GI50 (UO-31; Homo sapiens, UO-31, 48 h): 1.72 µM
Percentage Cell Growth (UO-31; UO-31, single dose 10 µM): −100.00%
GI50 (PC-3; Homo sapiens, PC-3, 48 h): 2.83 µM
Percentage Cell Growth (PC-3; PC-3, single dose 10 µM): −24.47%
Percentage Cell Growth (DU-145; DU-145, single dose 10 µM): −32.96%
GI50 (DU-145; Homo sapiens, DU-145, 48 h): 3.21 µM
GI50 (MDA-MB-231/ATCC): 1.97 µM
activity at 10 µM (MDA-MB-231/ATCC; [2]): -28.4%
Percentage Cell Growth (BT-549; BT-549, single dose 10 µM): −21.60%
GI50 (BT-549; Homo sapiens, BT-549, 48 h): 3.99 µM
GI50 (T-47D; Homo sapiens, T47D, 48 h): 4.55 µM
Percentage Cell Growth (T-47D; T-47D, single dose 10 µM): −24.75%
cancer cell lethality, range of percentage growth ([1]; cell lines with negative growth): −1.70% to −100%
cases of cancer cell lethality ([1]; number of cell lines): 49
MID b, average sensitivity of all cell line of particular subpanel (Breast cancer subpanel): 3.73 µM
Selectivity, ratio MID a: MID b (Breast cancer subpanel): 0.98
MID b, average sensitivity of all cell line of particular subpanel (Prostate cancer subpanel): 3.02 µM
Selectivity, ratio MID a: MID b (Prostate cancer subpanel): 1.22
